According to US8642622B2, “Piperidinyl compound as a modulator of chemokine receptor activity” (Bristol-Myers Squibb Company, priority 2010, dated 2014):
pKi: −log10 of the molar value. Read-outs that look alike come from different tables or passages of the source.

How the values were obtained:
[1] = Single-dose pharmacokinetics in rats; type: in vivo; settings: male, Sprague-Dawley, rat, plasma; for bioavailability: po
Procedure: Serial blood samples were collected for all studies from the jugular vein at various time points post dose (0.17 (or 0.25 for oral), 0.5, 0.75, 1, 2, 4, 6, 8 and 24 h, for example). Plasma samples were analyzed by LC-MS/MS.
Additional studies evaluating suspensions of crystalline drug substance in aqueous medium were performed as described above.

[2] = target: T1, human cardiac sodium channel, SCNSA (Homo sapiens, UniProt Q14524); test: Sodium channel whole-cell patch-clamp assay; type: cell-based; settings: HEK293, HEK-293, protein-free buffer, read-out: Na channel, % inh
T1 construct: expressed in transfected cells; host or cells: HEK-293
Procedure: Whole-cell patch-clamp was used to directly measure inward sodium currents in HEK-293 cells expressing the human cardiac sodium channel, SCNSA. After reach steady-state effect in the presence of drug, rate-dependence was assessed by stimulation at frequencies of 1 Hz and 4 Hz. Experiments were carried out using an aqueous buffer at pH 7.4 and at room temperature. There is no protein in the buffer and drug concentrations reported are nominal free drug levels. Test article was evaluated up to 10 μM (protein-free buffer). […] Data is reported as percent inhibition at a fixed concentration.

Protein binding, human = type: in vitro ADME
Protein binding, rabbit = type: in vitro ADME
[3] = Electrocardiography in anesthetized rabbits (rabbit in vivo EP effect)
Procedure: A dose-response study of test compound was conducted in anesthetized rabbits to assess the cardiac electrophysiologic profile established in the cellular ion channel assays.
Experiments were performed in propofol-fentanyl anesthetized closed-chest male rabbits. A body surface electrocardiogram (ECG) and an intra-cardiac His-bundle electrogram were continuously monitored and recorded during the studies, using a PoNeMah system and a Prucka electrophysiological recording system, respectively. Test compound was prepared on the day of study in a vehicle of PEG400:ethanol:water (1:1:1) at a dosing concentration of 30 mg/mL. Test compound (n=3) or vehicle (n=3) was given intravenously over 5 minutes via an infusion pump at incremental doses of 3, 10 and 30 mg/kg. The interval between doses was 10 minutes, allowing for a 5-minute test agent infusion and a 5-minute rest period. Blood was sampled at baseline (pre-drug infusion) and immediately at the end of each infusion. For the 30 mg/kg dose, additional blood samples were taken at 10, 20 and 30 minutes after the end of infusion.
PR interval, QRS duration and QT interval were averaged from a 1 minute ECG recording period at time of blood sampling. QT interval was corrected for heart rate effects using both Fridericia (QTcf) and Van der Water (QTcv) formulae. AH and HV intervals, representing A-V node conduction and His-Purkinje conduction, respectively, were assessed by manual measurements from the His-bundle electrogram. Data were expressed as percent change from pre-drug baseline (mean±SEM) for PR, QRS, AH and HV intervals as well as delta change from the pre-drug infusion baseline (mean±SEM) for QTc intervals. Changes of 10% in PR, QRS, and AH intervals, and 20% in HV interval, as well as >10 ms in QTc interval are considered significant based on experience with the model.

CCR1 = target: T2, CCR1 (Homo sapiens, UniProt P32246); test: Human CCR1 THP-1 binding assay ([125I]MIP-1α competition); settings: THP-1 cells
T2 construct: THP-1 monocytic leukemia cells are combined with 100 μg of LS WGA PS beads; endogenous in cells; host or cells: THP-1 monocytic leukemia cells
T2 sequence (P32246 1-355): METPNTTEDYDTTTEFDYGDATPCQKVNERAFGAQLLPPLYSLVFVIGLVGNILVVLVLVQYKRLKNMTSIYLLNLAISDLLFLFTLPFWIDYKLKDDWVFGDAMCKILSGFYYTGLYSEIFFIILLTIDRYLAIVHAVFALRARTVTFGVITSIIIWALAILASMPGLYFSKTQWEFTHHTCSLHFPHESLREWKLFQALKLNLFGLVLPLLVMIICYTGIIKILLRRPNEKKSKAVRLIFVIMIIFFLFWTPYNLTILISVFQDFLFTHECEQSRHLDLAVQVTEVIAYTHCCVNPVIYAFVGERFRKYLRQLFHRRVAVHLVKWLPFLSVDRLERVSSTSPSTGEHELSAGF
Procedure: For radioligand competition studies, a final concentration of 1×10^5 THP-1 monocytic leukemia cells are combined with 100 μg of LS WGA PS beads (Amersham, Cat.#: RPNQ 0260) in 40 μL of assay buffer (RPMI 1640 without phenol red, 50 mM HEPES, 5 mM MgCl2, 1 mM CaCl2, 0.1% BSA). The THP-1 cell/bead mixture was added to each well of a 384-well assay plate (PerkinElmer, Cat. #:6007899) containing test compound in 3-fold serial dilution, with final concentrations ranging from 8 μM to 0.14 nM. A final concentration of 0.1 nM [^125I]MIP-1α (PerkinElmer, Cat. # NEX298) in 20 μL assay buffer was added to the reaction. Unlabeled MIP-1α was added in excess to some wells to determine non-specific binding. Sealed assay plates were incubated at room temperature for 12 h then analyzed by LEADseeker™.
The competition data of the test compound over a range of concentrations is plotted as percentage inhibition of radioligand specifically bound in the absence of test compound (percent of total signal). After correcting for non-specific binding, IC50 values are determined. […] The Ki values are determined by application of the Cheng-Prusoff equation to the IC50 values, where Ki=IC50/(1+ligand concentration/Kd). […]

hERG potassium channel = target: T3, hERG potassium channel (Homo sapiens, UniProt Q12809); test: hERG patch clamp assay; type: cell-based; settings: HEK-293 cells stably expressing hERG, pH 7.4, HEK-293, protein-free buffer, read-out: hERG channel, % inh
T3 construct: expressed in transfected cells
Procedure: Whole-cell patch-clamp was used to directly measure hERG tail currents in HEK-293 cells stably expressing the cloned hERG potassium channel α subunit. Effects of compounds were calculated by measuring inhibition of peak tail current. Experiments were carried out using an aqueous buffer with pH 7.4 at room temperature. There was no protein in the assay buffer. The test concentrations reported are nominal free drug levels. Data is reported as percent inhibition at a fixed concentration.

T1 sequence (Q14524 whole entry): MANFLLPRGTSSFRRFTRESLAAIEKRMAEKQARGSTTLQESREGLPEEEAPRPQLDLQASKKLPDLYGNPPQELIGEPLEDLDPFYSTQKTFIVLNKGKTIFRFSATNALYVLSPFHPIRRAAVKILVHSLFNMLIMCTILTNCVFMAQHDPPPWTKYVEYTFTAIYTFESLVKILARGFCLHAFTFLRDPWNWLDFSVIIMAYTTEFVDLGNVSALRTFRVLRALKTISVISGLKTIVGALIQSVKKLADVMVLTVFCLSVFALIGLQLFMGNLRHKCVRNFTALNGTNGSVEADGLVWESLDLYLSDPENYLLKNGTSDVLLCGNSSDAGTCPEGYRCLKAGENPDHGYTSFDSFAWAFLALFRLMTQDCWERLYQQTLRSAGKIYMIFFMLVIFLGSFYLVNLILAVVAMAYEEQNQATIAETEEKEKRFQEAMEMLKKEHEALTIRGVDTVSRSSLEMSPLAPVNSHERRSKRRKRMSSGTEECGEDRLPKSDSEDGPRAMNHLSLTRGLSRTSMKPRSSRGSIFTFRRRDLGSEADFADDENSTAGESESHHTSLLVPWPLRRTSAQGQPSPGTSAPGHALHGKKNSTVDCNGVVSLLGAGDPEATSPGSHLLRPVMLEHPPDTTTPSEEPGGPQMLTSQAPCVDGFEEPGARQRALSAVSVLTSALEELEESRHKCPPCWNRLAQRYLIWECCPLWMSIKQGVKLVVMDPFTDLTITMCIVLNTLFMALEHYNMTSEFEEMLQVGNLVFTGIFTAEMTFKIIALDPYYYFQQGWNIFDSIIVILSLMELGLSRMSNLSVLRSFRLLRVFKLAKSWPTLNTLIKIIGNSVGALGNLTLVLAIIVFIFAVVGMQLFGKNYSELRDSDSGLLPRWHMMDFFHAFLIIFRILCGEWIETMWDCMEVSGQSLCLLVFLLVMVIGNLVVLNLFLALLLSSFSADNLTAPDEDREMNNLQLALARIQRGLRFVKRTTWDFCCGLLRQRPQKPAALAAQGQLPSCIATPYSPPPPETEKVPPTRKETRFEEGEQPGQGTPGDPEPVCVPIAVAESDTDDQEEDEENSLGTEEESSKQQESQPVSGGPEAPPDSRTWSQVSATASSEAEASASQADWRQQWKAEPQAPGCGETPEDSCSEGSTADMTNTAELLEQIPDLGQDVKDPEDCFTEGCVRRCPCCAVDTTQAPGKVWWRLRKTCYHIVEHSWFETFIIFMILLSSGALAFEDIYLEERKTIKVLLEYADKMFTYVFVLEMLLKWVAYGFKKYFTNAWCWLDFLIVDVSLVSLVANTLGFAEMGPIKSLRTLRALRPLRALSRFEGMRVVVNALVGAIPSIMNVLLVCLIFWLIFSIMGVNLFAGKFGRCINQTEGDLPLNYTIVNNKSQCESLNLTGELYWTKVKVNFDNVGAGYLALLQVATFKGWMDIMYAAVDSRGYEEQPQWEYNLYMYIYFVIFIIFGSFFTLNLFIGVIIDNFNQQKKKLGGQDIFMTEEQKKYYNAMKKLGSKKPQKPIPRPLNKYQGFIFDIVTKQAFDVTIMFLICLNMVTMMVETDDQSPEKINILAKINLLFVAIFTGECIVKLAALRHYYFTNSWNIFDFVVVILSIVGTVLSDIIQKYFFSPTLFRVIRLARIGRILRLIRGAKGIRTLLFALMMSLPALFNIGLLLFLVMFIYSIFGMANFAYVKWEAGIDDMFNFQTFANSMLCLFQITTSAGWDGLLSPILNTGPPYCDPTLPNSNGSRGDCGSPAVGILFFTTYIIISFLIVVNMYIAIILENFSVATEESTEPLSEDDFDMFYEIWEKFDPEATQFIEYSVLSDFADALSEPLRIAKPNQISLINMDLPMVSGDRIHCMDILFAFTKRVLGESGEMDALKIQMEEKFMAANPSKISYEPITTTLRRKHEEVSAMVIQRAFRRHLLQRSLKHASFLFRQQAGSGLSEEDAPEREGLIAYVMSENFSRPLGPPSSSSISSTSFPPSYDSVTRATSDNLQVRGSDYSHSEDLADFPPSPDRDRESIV
T3 sequence (Q12809 whole entry): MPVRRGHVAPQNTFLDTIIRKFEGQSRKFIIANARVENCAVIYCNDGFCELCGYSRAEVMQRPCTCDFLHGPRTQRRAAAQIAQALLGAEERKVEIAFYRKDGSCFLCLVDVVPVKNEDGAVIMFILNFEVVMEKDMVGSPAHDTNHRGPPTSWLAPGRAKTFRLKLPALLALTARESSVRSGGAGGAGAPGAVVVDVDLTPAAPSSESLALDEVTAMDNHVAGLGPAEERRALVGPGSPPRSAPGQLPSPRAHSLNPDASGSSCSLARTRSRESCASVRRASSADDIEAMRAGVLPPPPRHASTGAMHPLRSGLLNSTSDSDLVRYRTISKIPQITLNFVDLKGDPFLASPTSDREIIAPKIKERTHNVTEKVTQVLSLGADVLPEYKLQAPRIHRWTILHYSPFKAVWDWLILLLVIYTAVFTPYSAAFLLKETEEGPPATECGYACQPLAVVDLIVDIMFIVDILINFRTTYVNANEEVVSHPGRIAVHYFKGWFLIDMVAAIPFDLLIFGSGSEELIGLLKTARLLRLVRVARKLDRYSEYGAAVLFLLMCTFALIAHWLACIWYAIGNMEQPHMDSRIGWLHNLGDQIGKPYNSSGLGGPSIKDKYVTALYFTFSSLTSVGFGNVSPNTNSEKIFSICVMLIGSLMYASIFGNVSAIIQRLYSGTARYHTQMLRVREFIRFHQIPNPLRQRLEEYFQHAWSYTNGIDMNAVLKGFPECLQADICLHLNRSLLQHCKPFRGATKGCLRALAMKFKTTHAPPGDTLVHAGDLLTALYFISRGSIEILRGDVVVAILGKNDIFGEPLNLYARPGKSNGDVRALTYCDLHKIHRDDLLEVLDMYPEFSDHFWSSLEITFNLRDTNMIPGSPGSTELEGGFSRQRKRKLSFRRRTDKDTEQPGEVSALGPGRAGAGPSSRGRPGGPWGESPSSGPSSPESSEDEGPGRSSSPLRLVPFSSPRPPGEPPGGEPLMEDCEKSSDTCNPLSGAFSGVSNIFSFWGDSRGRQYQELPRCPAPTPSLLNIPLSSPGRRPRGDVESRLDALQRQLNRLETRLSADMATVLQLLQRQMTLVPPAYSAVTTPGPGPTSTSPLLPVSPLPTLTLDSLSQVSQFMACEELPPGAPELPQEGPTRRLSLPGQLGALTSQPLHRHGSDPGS

SMILES | clearance ([1]; intravenous) [mL/min/kg] | bioavailability ([1]; crystalline suspension in aqueous medium, read-out: Relative bioavailability when dosed as a crystalline suspension) [%] | bioavailability ([1]; oral solution, read-out: Rat oral bioavailability when dosed as solution) [%] | inhibition at 10 µM [2] [%] | fraction unbound (Protein binding, human) | fraction unbound (Protein binding, rabbit) | Cmax: Free drug (at NOEL dose) ([3]; at NOEL dose, free drug) [µM] | Cmax: Free drug (at QT effect dose) ([3]; at QT effect dose, free drug) [µM] | NOEL dose ([3]; i.v. infusion) [mg/kg] | QT effect Dose ([3]; i.v. infusion 3, 10, 30 mg/kg) [mg/kg] | QTcf, delta ([3]; i.v. infusion, change from pre-drug baseline) | Cmax ([3]; male, blood, iv, at QT effect dose, total drug) [µM] | pKi (CCR1) | inhibition at 30 µM (hERG potassium channel) [%]
CC(C)[C@@H](NC(=O)[C@@H]1CCC(F)(F)C1)C(=O)N1CC[C@](O)(c2ccc(Cl)cc2)[C@@](C)(O)C1 [Compound I, (R)—N—((R)-1-((3S,4S)-4-(4-chlorophenyl)-3,4-dihydroxy-3-methylpiperidin-1-yl)-3-methyl-1-oxobutan-2-yl)-3,3-difluorocyclopentanecarboxamide] | 26 | 84 | 43 | 21 | 0.32 | 0.46 | 52 | 52 | 30 | > 30 | No effect | 96 | 8.80 | 22
CC(C)COC(=O)N[C@@H](C(=O)N1CC[C@](O)(c2ccc(Cl)cc2)C(C)(C)C1)C(C)C [Example 1083] | – | – | – | – | – | – | – | – | – | – | – | – | 8.59 | –
